The source of these data is patent US9938299B2, “Glycosidase inhibitors and uses thereof” (MERCK SHARP & DOHME CORP., priority 2012, dated 2018).

For orientation: Ki means a measure of affinity in units of concentration, obtained from inhibition or displacement.

The first assay addresses T1, human O-GlcNAcase (Homo sapiens, UniProt O60502).
T1 sequence (O60502 1-916): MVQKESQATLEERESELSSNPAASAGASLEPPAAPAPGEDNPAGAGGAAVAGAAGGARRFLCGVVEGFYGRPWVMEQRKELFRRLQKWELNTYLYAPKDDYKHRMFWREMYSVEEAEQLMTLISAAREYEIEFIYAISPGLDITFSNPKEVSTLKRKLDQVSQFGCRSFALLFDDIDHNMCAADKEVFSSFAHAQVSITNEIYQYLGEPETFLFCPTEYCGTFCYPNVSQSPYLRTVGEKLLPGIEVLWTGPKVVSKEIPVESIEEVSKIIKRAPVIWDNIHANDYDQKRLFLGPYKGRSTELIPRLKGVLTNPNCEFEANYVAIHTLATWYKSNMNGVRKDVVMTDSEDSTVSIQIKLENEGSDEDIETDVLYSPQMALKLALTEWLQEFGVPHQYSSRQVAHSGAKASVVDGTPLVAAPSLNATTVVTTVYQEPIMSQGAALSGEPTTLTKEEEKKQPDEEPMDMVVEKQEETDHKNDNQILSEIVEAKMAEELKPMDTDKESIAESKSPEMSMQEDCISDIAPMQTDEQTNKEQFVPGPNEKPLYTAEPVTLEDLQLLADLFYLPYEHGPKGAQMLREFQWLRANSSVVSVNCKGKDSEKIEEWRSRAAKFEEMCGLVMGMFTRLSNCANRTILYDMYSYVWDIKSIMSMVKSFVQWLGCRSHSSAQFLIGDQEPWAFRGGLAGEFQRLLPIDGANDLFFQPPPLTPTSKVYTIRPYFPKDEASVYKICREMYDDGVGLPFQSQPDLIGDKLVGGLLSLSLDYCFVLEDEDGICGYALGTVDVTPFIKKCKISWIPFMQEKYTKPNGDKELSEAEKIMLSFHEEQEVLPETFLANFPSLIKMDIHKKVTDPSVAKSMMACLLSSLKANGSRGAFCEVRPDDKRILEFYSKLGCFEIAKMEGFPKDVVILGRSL
The assay is described as follows: Determination of KI values for inhibition of O-GlcNAcase activity (fluorogenic 4-methylumbelliferyl GlcNAc substrate).
Conditions: not given
Type of assay: biochemical. How it is done:
Assay for Determination of […] for Inhibition of O-GlcNAcase Activity
Experimental procedure for kinetic analyses: Enzymatic reactions were carried out in a reaction containing 50 mM NaH2PO4, 100 mM NaCl and 0.1% BSA (pH 7.0) using 2 mM 4-Methylumbelliferyl N-acetyl-β-D-glucosaminide dihydrate (Sigma M2133) dissolved in ddH2O, as a substrate. The amount of purified human O-GlcNAcase enzyme used in the reaction was 0.7 nM. Test compound of varying concentrations was added to the enzyme prior to initiation of the reaction. The reaction was performed at room temperature in a 96-well plate and was initiated with the addition of substrate. […] The slope of product production was determined for each concentration of compound tested and plotted, using standard curve fitting algorithms for sigmoidal dose response curves. The values for a four parameter logistic curve fit of the data were determined.
On to `CNC1=N[C@@H]2[C@@H](O)[C@H](O)C(C(C)=O)O[C@@H]2S1` (stereo partly drawn) [Example 38, 1-((3aR,6S,7R,7aR)-6,7-dihydroxy-2-(methylamino)-5,6,7,7a-tetrahydro-3aH-pyrano[3,2-d]thiazol-5-yl)ethanone], for which the affinity corresponds to a Ki of 0.079 µM.

Still in this assay, the particulars now being: purified human O-GlcNAcase 0.7 nM, 2 mM substrate, pH 7.0, room temperature; Cheng-Prusoff; read-out: Ki.
In the case of `COc1ccc(CC[C@H](O)[C@H]2O[C@@H]3SC(N(C)C)=N[C@@H]3[C@@H](O)[C@@H]2O)cc1` [Example 23, (3aR,5R,6S,7R,7aR)-2-(dimethylamino)-5-((S)-1-hydroxy-3-(4-methoxyphenyl)propyl)-5,6,7,7a-tetrahydro-3aH-pyrano[3,2-d]thiazole-6,7-diol], the Ki was determined as 0.0064 µM.
On the same count and under the same terms, in the case of `CN(C)C1=N[C@@H]2[C@@H](O)[C@H](O)[C@@H]([C@@H](O)CCc3ccccc3)O[C@@H]2S1` [Example 24, (3aR,5R,6S,7R,7aR)-2-(dimethylamino)-5-((S)-1-hydroxy-3-phenylpropyl)-5,6,7,7a-tetrahydro-3aH-pyrano[3,2-d]thiazole-6,7-diol] it was 0.015 µM; in that of `CN(C)C1=N[C@@H]2[C@@H](O)[C@H](O)[C@@H]([C@](O)(Cc3ccccc3)C(F)(F)F)O[C@@H]2S1` [Example 25, (3aR,5S,6S,7R,7aR)-2-(dimethylamino)-5-((R)-1,1,1-trifluoro-2-hydroxy-3-phenylpropan-2-yl)-5,6,7,7a-tetrahydro-3aH-pyrano[3,2-d]thiazole-6,7-diol], 0.338 µM; in that of `CN(C)C1=N[C@@H]2[C@@H](O)[C@H](O)[C@@H]([C@@](O)(Cc3ccccc3)C(F)(F)F)O[C@@H]2S1` [Example 26, (3aR,5S,6S,7R,7aR)-2-(dimethylamino)-5-(1,1,1-trifluoro-2-hydroxy-3-phenylpropan-2-yl)-5,6,7,7a-tetrahydro-3aH-pyrano[3,2-d]thiazole-6,7-diol], 0.066 µM.
On the same count and under the same terms, as for `COc1ccc(CC[C@](O)([C@H]2O[C@@H]3SC(N(C)C)=N[C@@H]3[C@@H](O)[C@@H]2O)C(F)(F)F)cc1` [Example 30, (3aR,5S,6S,7R,7aR)-2-(dimethylamino)-5-(1,1,1-trifluoro-2-hydroxy-4-(4-methoxyphenyl)butan-2-yl)-5,6,7,7a-tetrahydro-3aH-pyrano[3,2-d]thiazole-6,7-diol], the figure is 0.142 µM.
On the same count and under the same terms, as for `CNC1=N[C@@H]2[C@@H](O)[C@H](O)[C@@H](CC#N)O[C@@H]2S1` [Example 31, 2-((3aR,5R,6S,7R,7aR)-6,7-dihydroxy-2-(methylamino)-5,6,7,7a-tetrahydro-3aH-pyrano[3,2-d]thiazol-5-yl)acetonitrile], the figure is 0.00108 µM.
`C=CCNC1=N[C@@H]2[C@@H](O)[C@H](O)[C@@H](CC#N)O[C@@H]2S1` [Example 32, 2-((3aR,5R,6S,7R,7aR)-2-(allylamino)-6,7-dihydroxy-5,6,7,7a-tetrahydro-3aH-pyrano[3,2-d]thiazol-5-yl)acetonitrile]: the inhibition constant (Ki) is 0.13 µM.
On to `CN(C)C(=O)CC[C@H]1O[C@@H]2SC(N(C)C)=N[C@@H]2[C@@H](O)[C@@H]1O` [Example 33, 3-((3aR,5R,6S,7R,7aR)-2-(dimethylamino)-6,7-dihydroxy-5,6,7,7a-tetrahydro-3aH-pyrano[3,2-d]thiazol-5-yl)-N,N-dimethylpropanamide], for which the Ki was found to be 0.311 µM.
As for `CNC(=O)[C@H]1O[C@@H]2SC(NC)=N[C@@H]2[C@@H](O)[C@@H]1O` [Example 35, (3aR,5 S,6S,7R,7aR)-6,7-dihydroxy-N-methyl-2-(methylamino)-5,6,7,7a-tetrahydro-3aH-pyrano[3,2-d]thiazole-5-carboxamide], the Ki is 0.845 µM.
As for `CNC1=N[C@@H]2[C@@H](O)[C@H](O)[C@@H](C(=O)O)O[C@@H]2S1` [Example 36, (3aR,5S,6S,7R,7aR)-6,7-dihydroxy-2-(methylamino)-5,6,7,7a-tetrahydro-3aH-pyrano[3,2-d]thiazole-5-carboxylic acid], the Ki was found to be 0.0055 µM.
Same read-out and setting: in the case of `CNC1=N[C@@H]2[C@@H](O)[C@H](O)[C@@H](C(=O)OC)O[C@@H]2S1` [Example 37, (3aR,5S,6S,7R,7aR)-methyl 6,7-dihydroxy-2-(methylamino)-5,6,7,7a-tetrahydro-3aH-pyrano[3,2-d]-thiazole-5-carboxylate] it was 0.068 µM.
